Values quoted from earlier work as cited in patent US11123091B2, “Device and methods for treating paranasal sinus conditions” (Intersect ENT, Inc., priority 2005, dated 2021).
pEC50: −log10 of the molar value.

Tested on: cultured human airway epithelial cells
Conditions: for drug concentration at which dose response curves begin: beginning as low as; for pEC50: read-out: EC50 levels of transcriptional response

Row | pEC50 | Compound | drug concentration at which dose response curves begin
1 | 10.00 | CCC(=O)O[C@]1(C(=O)SCF)[C@H](C)C[C@H]2[C@@H]3C[C@H](F)C4=CC(=O)C=C[C@]4(C)[C@@]3(F)[C@@H](O)C[C@@]21C [fluticasone propionate] | 10^−12 M
2 | 10.00 | C[C@@H]1C[C@H]2[C@@H]3CCC4=CC(=O)C=C[C@]4(C)[C@@]3(Cl)[C@@H](O)C[C@]2(C)[C@@]1(OC(=O)c1ccco1)C(=O)CCl [mometasone furoate] | 10^−12 M
